The test relates to A549 lung cancer cells. The test is described as follows: Timing and duration of Compound B-2 exposure on sensitization of A549 cells to doxorubicin hydrochloride (24 h); CellTiterGlo viability at 6 days, Bliss analysis. The format is cell-based, human. Set-up: scale not given here. On the procedure:
Cell lines, reagents, equipment, software: The human cancer cell line A549 (CCL-185) was obtained from American Type Culture Collection (ATCC; Manassas, VA). Compound B-2 used in these experiments was not prepared as a co-crystal. A 10 mM stock solution of Compound B-2 was prepared in DMSO (ATCC catalog #4-X) and stored at −20° C. Doxorubicin hydrochloride (dox) was obtained from Sigma (St. Louis, MO) (catalog #D1515), dissolved in DMSO to a 10 mM concentration and stored at −20° C.
Cell culture: The A549 human lung cancer cell line was cultured in DMEM (Life Technologies, catalog #11995) supplemented with 10% fetal bovine serum (Hyclone, catalog #SH30071.03), 1× GlutaMAX (Life Technologies, catalog #35050-061), pyruvate (Life Technologies, catalog #11360-070) and 1× Penicillin/Streptomycin (Life Technologies, catalog #15070) (complete medium). Cells were maintained at a sub-confluent state by passaging every 3-4 days. Cells were plated at 1000 cells per well in a 96-well, clear-bottomed microplate (Corning, catalog #3904), and incubated in a 37° C., 5% CO2 incubator attach overnight prior to compound addition.
Treatment with Compound B-2 and Doxorubicin hydrochloride: Ten mM stocks of Compound B-2 and doxorubicin hydrochloride were made in DMSO and added in combination to the plated cells using an HP digital dispenser D300 (Tecan, Switzerland). For these experiments, combinations with Compound B-2 at all concentrations were run in singlicate using a combination matrix in which Compound B-2 was added as a titration from 20 μM to 0.1 μM on the X-axis of the plate and doxorubicin hydrochloride added in a 2-fold dilution from 80 nM to 0.125 nM for the 6 day and 24 hour co-incubation experiments and 8 nM to 0.0125 nM for the rest of the experiments on the Y-axis. One row contained only the Compound B-2 titration and one column only the doxorubicin hydrochloride titration. Two columns of cells were used as a no-treatment control from which the fractional survival of the treated cells was determined. Cells were cultured at 37° C., 5% CO2, 95% air and 100% relative humidity. The timing of compound addition, the washout of the compounds from the wells of the plates and re-addition of doxorubicin hydrochloride was as detailed in FIG. 1. Briefly, the media from all of the wells in the plate were removed by hand using a multi-pipette, fresh (no compound) media was added, then removed again and then fresh media was added one last time. The re-addition of doxorubicin hydrochloride, where indicated, was performed using the HP D300 as outlined in FIG. 1. After 24 h, all plates were washed as detailed above and fresh medium (no compound) added. The plates were incubated for an additional 5 days (6 days in total).
Cell Viability Analysis: Six days after initial compound addition, 50 μL of CellTiterGlo (prepared according to manufacturer's protocol) was added to each well of the compound titration plates. Luminescence was read on a Pherastar FS luminescence reader (BMG Labtech, Offenberg, Germany) and these values were used for all further analyses.
Computational Methods: Cell viabilities were evaluated for a matrix of doxorubicin hydrochloride and Compound B-2 concentrations in a series of experiments testing different times of Compound B-2 addition and durations of Compound B-2 exposure. The data from each of these experiments were analyzed separately. The steps in the analysis of each experiment are described below. • 1. For each Compound B-2 concentration, the EC50 of doxorubicin hydrochloride was calculated using Prism software. The concentration in the matrix of doxorubicin hydrochloride concentrations closest to the EC50 was then identified. • 2. […]
For orientation: Cellular ATP, detected with luciferase, serves as a proxy for viable cell number.

As to `[2H]c1nc(C)nc([2H])c1-c1cc(NC[C@@H](C)c2cccc3c(C(=O)NC)ccnc23)ncn1` [Compound B-2], the “Bliss AUC” value reads like this: (Experiment A: Compound B-2 added 0 h after doxorubicin hydrochloride, exposure 24 h) 728; (Experiment B: Compound B-2 added at 0 h, exposure 16 h) 101; (Experiment C: Compound B-2 added at 8 h, exposure 16 h) 710; (Experiment E: Compound B-2 added at 4 h, exposure 12 h) 266; (Experiment G: Compound B-2 added at 12 h, exposure 12 h) 415; (Experiment H: Compound B-2 added at 0 h, exposure 8 h) 71. The “Bliss AUC” value (Experiment I: Compound B-2 added at 4 h, exposure 8 h) was 49; the “Bliss AUC” value (Experiment J: Compound B-2 added at 8 h, exposure 8 h) was 12; the “Bliss AUC” value (Experiment K: Compound B-2 added at 12 h, exposure 8 h) amounted to 124; the “Bliss AUC” value (Experiment L: Compound B-2 added at 16 h, exposure 8 h) came out at 323.

For the origin of these results see patent US11980633B2, “Method for treating cancer using a combination of DNA-damaging agents and DNA-PK inhibitors” (Vertex Pharmaceuticals Incorporated, priority 2016, dated 2024).
